Assays:
[1] = target: T1, Nucleotide-binding oligomerization domain-containing protein 1 (Homo sapiens, UniProt Q9Y239); assay: Antagonist activity at recombinant human NOD1 expressed in HEK293 cells assessed as inhibition of C12-iE-DAP-induced IL8 release measured after 24 hrs by HTRF assay; assay type: cell-based
T1 sequence (Q9Y239 whole entry): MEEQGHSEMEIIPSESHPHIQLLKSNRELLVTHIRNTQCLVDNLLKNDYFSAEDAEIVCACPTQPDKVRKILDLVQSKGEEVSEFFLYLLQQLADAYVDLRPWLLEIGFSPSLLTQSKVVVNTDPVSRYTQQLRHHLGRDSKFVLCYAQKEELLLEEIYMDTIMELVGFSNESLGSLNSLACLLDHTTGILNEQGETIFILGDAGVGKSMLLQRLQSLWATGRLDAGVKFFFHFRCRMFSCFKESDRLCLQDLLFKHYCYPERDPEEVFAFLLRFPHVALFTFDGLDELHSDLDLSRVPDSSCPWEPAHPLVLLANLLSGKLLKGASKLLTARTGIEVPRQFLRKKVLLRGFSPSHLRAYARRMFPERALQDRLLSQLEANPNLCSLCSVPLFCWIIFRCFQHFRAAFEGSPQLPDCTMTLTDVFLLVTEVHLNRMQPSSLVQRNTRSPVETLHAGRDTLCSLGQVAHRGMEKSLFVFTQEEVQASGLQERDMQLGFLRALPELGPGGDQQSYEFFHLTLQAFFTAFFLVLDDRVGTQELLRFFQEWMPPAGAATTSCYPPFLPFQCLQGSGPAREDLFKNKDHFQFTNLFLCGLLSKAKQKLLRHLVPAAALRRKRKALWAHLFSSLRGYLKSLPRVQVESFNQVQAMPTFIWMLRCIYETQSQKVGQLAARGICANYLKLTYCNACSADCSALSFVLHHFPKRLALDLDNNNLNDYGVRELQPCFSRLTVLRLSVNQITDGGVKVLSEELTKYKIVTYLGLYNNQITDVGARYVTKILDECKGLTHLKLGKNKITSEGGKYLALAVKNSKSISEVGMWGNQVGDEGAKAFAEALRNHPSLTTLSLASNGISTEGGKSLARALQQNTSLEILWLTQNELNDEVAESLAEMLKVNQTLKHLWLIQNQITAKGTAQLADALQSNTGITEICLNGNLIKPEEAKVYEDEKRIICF

[2] = target: Nucleotide-binding oligomerization domain-containing protein 2 (Homo sapiens, UniProt Q9HC29); assay: Antagonist activity at recombinant human NOD2 expressed in HEK293 cells assessed as inhibition of MDP-induced IL8 release measured after 24 hrs by HTRF assay; assay type: cell-based
Sequence of Nucleotide-binding oligomerization domain-containing protein 2 (Q9HC29 whole entry, the tested form may be a part): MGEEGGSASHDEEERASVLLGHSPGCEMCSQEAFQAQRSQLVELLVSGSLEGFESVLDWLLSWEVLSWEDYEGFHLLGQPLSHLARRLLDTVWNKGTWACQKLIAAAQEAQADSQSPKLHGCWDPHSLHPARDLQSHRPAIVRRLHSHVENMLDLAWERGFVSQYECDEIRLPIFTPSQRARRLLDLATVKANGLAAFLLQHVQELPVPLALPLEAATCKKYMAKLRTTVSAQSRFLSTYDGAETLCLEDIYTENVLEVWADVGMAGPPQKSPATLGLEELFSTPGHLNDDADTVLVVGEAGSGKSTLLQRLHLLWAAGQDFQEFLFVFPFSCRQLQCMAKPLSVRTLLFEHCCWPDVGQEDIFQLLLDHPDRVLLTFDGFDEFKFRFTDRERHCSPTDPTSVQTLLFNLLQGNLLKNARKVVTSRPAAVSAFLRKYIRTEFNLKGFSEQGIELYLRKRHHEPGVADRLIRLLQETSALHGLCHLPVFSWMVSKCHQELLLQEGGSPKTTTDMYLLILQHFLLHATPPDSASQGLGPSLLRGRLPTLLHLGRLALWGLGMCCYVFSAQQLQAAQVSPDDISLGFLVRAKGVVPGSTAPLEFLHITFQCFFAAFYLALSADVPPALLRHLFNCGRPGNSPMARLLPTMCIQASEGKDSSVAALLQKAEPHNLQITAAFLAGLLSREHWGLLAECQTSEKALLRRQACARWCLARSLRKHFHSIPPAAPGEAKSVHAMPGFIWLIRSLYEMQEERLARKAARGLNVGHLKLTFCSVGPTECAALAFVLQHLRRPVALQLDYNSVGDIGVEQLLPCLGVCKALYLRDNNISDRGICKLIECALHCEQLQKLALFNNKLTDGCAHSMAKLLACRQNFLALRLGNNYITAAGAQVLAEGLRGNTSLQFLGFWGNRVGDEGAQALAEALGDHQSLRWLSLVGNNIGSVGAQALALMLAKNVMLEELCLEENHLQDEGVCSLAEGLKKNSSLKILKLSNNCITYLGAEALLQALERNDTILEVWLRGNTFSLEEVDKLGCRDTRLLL

## O=C(Cn1c(CCNC(=O)c2ccccc2)nc2ccccc21)Nc1ccc2c(c1)CCC2
[1]
  IC50: > 50 µM
[2]
  IC50: 3.3 µM

Reference: ChEMBL document CHEMBL4706575, “Nonpeptidic quinazolinone derivatives as dual nucleotide-binding oligomerization domain-like receptor 1/2 antagonists for adjuvant cancer chemotherapy” (Eur J Med Chem, 2020)
